# Test results published in patent publication US4241074A, “Prostaglandin analogues” (Beecham Group Limited, priority 1978, dated 1980).
# Assays:
# [1] = tested on: 5-hydroxytryptamine induced bronchoconstriction; test: inhibition of 5-hydroxytryptamine induced bronchoconstriction in the anaesthetised, artificially respired guinea-pig (Konzett-Rossler preparation); type: in vivo; details: Cavia porcellus, iv, vs 5-hydroxytryptamine, read-out: Konzett-Rossler Test Ed50
# Text: (a) The Compounds were examined for their ability to inhibit 5-hydroxytryptamine induced bronchoconstriction in the anaesthetised, artificially respired guinea-pig (Konzett-Rossler preparation).
# [2] = tested on: indomethacin induced gastric ulceration; test: inhibition of indomethacin induced gastric ulceration in the rat; type: in vivo
# Text: The compounds were examined for their ability to inhibit indomethacin induced gastric ulceration in the rat and the activities are shown in Table 2.
# [3] = tested on: broncho-constriction induced by an histamine aerosol; test: protection of conscious guinea-pigs against broncho-constriction induced by an histamine aerosol (Herxheimer test); type: in vivo, guinea-pig
# Experimental: (b) The Compounds were also examined for their ability to protect conscious guinea-pigs against broncho-constriction induced by an histamine aerosol (Herxheimer test). The Compounds were administered by aerosol.
# The aerosol was produced in the following manner.
# Water soluble Compounds were dissolved in normal saline at a concentration of […]. Water insoluble Compounds were dissolved in ethanol at a concentration of 10 μg/ml. These solutions were then diluted to the test concentrations with normal saline.
Structure (SMILES),ED50 [1] [µg/kg],% Inhibition of Damage ([2]; 100 mg/kg p.o.) [%],% Increase in pre-convulsive coughing time at a dose of 10 μg/ml ([3]; after 2 mins.) [%],other results
"CCCCCCC(C)(O)CCN1C(=O)N(C)C(=O)C1CCCCCCCC(C)=O (stereo not shown) [Compound 1, 1-(3'-hydroxy-3'-methyl-n-nonyl)-3-methyl-5-(8""-oxo-n-nonyl) hydantoin]",1.4,100,,% Inhibition of Damage ([2]; 25 mg/kg p.o.): 64%; % Inhibition of Damage ([2]; 50 mg/kg p.o.): 74%
"CCCCCCC(C)(O)CCN1C(=S)N(C)C(=O)C1CCCCCCCC(C)=O (stereo not shown) [Compound 2, 1-(3'-hydroxy-3'-methyl-n-nonyl)-3-methyl-5-(8""-oxo-n-nonyl)-2-thiohydantoin]",,100,,
"CCCCCCC(C)(O)CCN1CN(C)C(=O)C1CCCCCCCC(C)=O (stereo not shown) [Compound 3, 1-(3'-hydroxy-3'-methyl-n-nonyl)-3-methyl-5-(8""-oxo-n-nonyl)-4-imidazolidone]",,65,,
"CCCCCCC(C)(O)CCN1C(=O)N(C)C(=O)C1CC#CCCCCC(C)=O (stereo not shown) [Compound 6, 1-(3'-hydroxy-3'-methyl-n-nonyl)-3-methyl-5-(8""-oxo-non-2-ynyl) hydantoin]",,,29,% Increase in pre-convulsive coughing time at a dose of 10 μg/ml ([3]; after 5 mins.): 15%
"CCCCCCC(C)(O)CCN1C(=O)NC(=O)C1CCCCCCCC(C)=O (stereo not shown) [Compound 8, 1-(3'-hydroxy-3'-methyl-n-nonyl)-5-(8""-oxo-n-nonyl) hydantoin]",,,81,
"CCCCCCC(C)(O)CCN1C(=O)N(C)C(=O)C1CCCCCCC(C)=O (stereo not shown) [Compound 9, 1-(3'-hydroxy-3'-methyl-n-nonyl)-3-methyl-5-(7""-oxo-n-octyl) hydantoin]",67.5,,,
"CC(=O)CCCCCCCC1C(=O)N(C)C(=O)N1CCC(C)(O)C1CCCCC1 (stereo not shown) [Compound 11, 1-(3'-hydroxy-3'-cyclohexyl-n-butyl)-3-methyl-5-(8""-oxo-n-nonyl) hydantoin]",1,,140,% Increase in pre-convulsive coughing time at a dose of 10 μg/ml ([3]; after 5 mins.): 23%
